Values of other authors, collected in patent US20090105490A1, “Polymorphic forms of ramelteon and processes for preparation thereof” (priority 2007, published 2009).
Like-named read-outs stand apart in the source and are kept apart here.

Experiments:
melatonin MT2 receptor = biological target: T1, melatonin MT2 receptor (Homo sapiens, UniProt P49286); settings: melatonin receptor agonist
T1 sequence (P49286 1-362): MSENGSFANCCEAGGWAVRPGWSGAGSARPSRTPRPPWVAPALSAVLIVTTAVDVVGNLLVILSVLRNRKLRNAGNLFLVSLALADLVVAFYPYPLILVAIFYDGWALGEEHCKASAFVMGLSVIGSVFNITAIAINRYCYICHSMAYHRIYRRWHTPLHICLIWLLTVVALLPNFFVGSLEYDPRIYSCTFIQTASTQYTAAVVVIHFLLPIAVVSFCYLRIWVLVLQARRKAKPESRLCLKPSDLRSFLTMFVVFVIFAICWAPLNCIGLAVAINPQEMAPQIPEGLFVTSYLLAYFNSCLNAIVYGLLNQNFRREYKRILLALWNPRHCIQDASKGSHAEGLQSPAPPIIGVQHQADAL

MT3 receptor = settings: MT1 and MT2 versus MT3
melatonin MT1 receptor = melatonin MT1 receptor (Homo sapiens, UniProt P48039); settings: melatonin receptor agonist
Chain of melatonin MT1 receptor (P48039 whole entry): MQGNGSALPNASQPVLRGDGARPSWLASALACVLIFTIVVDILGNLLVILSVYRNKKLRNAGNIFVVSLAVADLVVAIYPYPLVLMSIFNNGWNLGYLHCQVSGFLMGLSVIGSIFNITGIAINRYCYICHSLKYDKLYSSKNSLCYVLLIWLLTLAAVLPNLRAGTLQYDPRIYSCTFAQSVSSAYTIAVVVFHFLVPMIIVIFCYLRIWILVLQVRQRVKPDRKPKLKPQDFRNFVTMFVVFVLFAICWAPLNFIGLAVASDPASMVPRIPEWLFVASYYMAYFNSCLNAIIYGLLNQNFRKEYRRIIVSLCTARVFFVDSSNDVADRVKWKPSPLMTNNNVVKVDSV

Question: Which “affinity for melatonin MT2 receptor” value (melatonin MT2 receptor) does the source give for `CCC(=O)NCC[C@@H]1CCc2ccc3c(c21)CCO3` [Ramelteon, (S)-N-[2-(1,6,7,8-tetrahydro-2H-indeno-[5,4-b]furan-8-yl)ethyl]propionamide] here?
Answer: high affinity

Question: What about the “selectivity over the MT3 receptor” value (MT3 receptor) of the same compound?
Answer: selectivity over the MT3 receptor

Question: And the solubility (1-octanol)?
Answer: freely soluble

Question: What about the solubility (DMSO) of the same compound?
Answer: freely soluble

Question: And the solubility (aqueous buffers)?
Answer: slightly soluble

Question: And the solubility (ethanol)?
Answer: freely soluble

Question: And the solubility (methanol)?
Answer: freely soluble

Question: What about the solubility (water) of the same compound?
Answer: slightly soluble

Question: What about the “affinity for melatonin MT1 receptor” value (melatonin MT1 receptor) of the same compound?
Answer: high affinity
